Laboratory results from patent publication EP0319316A2, “Griseolic acid monoesters, their preparation and use” (SANKYO COMPANY LIMITED, priority 1987, dated 1989).

Assays:
IOP = IOP lowering effect, area between IOP-time curves (Experiment 6); type: in vivo, male New Zealand white rabbits; details: Concentration 2.0 %; 25 µℓ three times every 2 minutes; ratio of areas between IOP lines
Method: In the following Experiments 1 to 6, the test animals used were male New Zealand white rabbits, each weighing about 2.5 kg, raised in a room where the room temperature, relative humidity and lighting time were controlled to be 23° C, 60% and from 07:00 to 19:00, respectively. The animals were chosen from those where no abnormalities could be detected in their eyes by observation with the naked eye. They were given water freely but feed was restricted.
The compound under test was dissolved in 100 mM of a sodium phosphate buffer solution (pH 7.2) containing a small amount of a 0.1 N aqueous solution of sodium hydroxide. In the case of timolol maleate, a 0.5% w/v eye lotion (Timoptol 0.5%, Santen Pharm. Co.) was used as such.
The cornea of the rabbit was anesthetized by the topical application of one or two drops of 0.4% oxybuprocaine hydrochloride. The IOP was measured two or three times for each eye and the mean value was calculated and is reported as the IOP value. After the IOP of the rabbit eye had been measured, 25 µℓ of the sample solution was applied to center of the cornea of one eye three times every 2 minutes. The other eye was treated with the vehicle alone in a similar way. The IOP of both eyes was then measured.
IOP values obtained from both eyes were plotted against times after application and the area enclosed by the two IOP lines (with and without the active compound) was calculated. The IOP lowering effect of each sample was expressed as a ratio of the area described above to that of 0.5^0/o timolol.

Male F344 rats = experiment: Acute toxicity in the rat (Experiment 7); type: in vivo; details: single, observation one week
Method: Animals: Male F344 rats were used, each group consisting of 3 animals.
Drug preparation and administration: the compound of Example 19(b) was dissolved in distilled water and administered subcutaneously to the rats in a volume of 0.5 ml per 100 g of body weight. Observation of the rats was carried out over a period of one week.

With `CC(=O)Oc1ccc(COC(=O)C23C=C(C(O)C(=O)O)OC2C(O)C(n2cnc4c(N)ncnc42)O3)cc1` (stereo not shown) [Example 19(b), 9'-(4-Acetoxybenzyl) griseolate] as the molecule, how does the “IOP Lowering Effect (Ratio to 0.5% timolol)” value (IOP) read?
The value was 2.35.

And the death rate (Male F344 rats; dose 25 mg/kg subcutaneously)?
Its death rate is 0/3.

What about the death rate (Male F344 rats; dose 50 mg/kg subcutaneously) of the same molecule?
Its death rate is 0/3.

What about the death rate (Male F344 rats; dose 100 mg/kg subcutaneously) of the same molecule?
Its death rate is 3/3.
